Experimental findings from patent US20250213622A1 (priority 2022, published 2025) are described below.

Common to all, as to assay type: in vivo, C57BL/6J mice
In assay [1] the test system is subacute MPTP mouse model. The assay is described as follows: Pole climbing test (T-Turn, T-TLA), subacute MPTP mouse model. The following applies: Selegiline 0.5 mg/kg/d i.p. On the procedure:
(§1) The mice were weighed and recorded, and injected subcutaneously at the back of the neck at 20 mg/kg, once a day for 5 consecutive days. Subsequent experiments were performed on the 1st, 3rd, 7th and 14th days after the last administration.
(§2) 128 healthy adult mice were randomly divided into six groups according to body weight, including normal control (Sham) group (n=20), MPTP model group (n=28), low-dose Lepalvir (10 U/kg/d) treatment group (n=20), medium-dose Lepalvir (20U/kg/d) treatment group (n=20), high-dose Lepalvir (40 U/kg/d) treatment group (n=20) and positive control drug Selegiline (0.5 mg/kg/d) treatment group (n=20). Among them, mice in the Lepalvir and Selegiline treatment groups were injected with corresponding doses intraperitoneally 1 hour after the first MPTP administration, and continued for 7 or 14 days, once a day. Mice in the MPTP model group were given an equal volume of normal saline (0.1 mL/10 g). Mice in the sham group were only given an equal volume of normal saline (0.1 mL/10 g).
(§3) Behavioral assessment was performed on the 1st, 3rd, 7th and 14th days after the last administration of MPTP.
The pole climbing test was used to evaluate the motor coordination function of mouse. The pole used was 1 cm in diameter and 50 cm in height. A wooden ball with a diameter of 1.2 cm was fixed to the top of the pole. The pole was wrapped with anti-slip tape to prevent the mouse from slipping. The mouse was placed on the top of the pole with its head facing up. When the mouse started to […], the timer started and the time it took for the mouse to cross the top of the pole (T-Turn) from the start of the movement and the time it took for the mouse to climb down to the bottom with four paws landing on the ground from the start of the movement (T-TLA) were recoded. Before the formal test, three consecutive trainings were required for each mouse. During the test, three consecutive measurements were required, and the shortest time was selected.

Assay [2] has as its system subacute MPTP mouse model. Briefly: Rotarod test, latency, subacute MPTP mouse model. The following applies: for Latency time: Selegiline 0.5 mg/kg/d i.p. On the procedure: as §1, §2, §3
The rotarod test was used to evaluate the motor balance and limb coordination of mouse. The mouse was placed on the drum of the Rotarod tester, and the speed was set to increase uniformly from 5 rpm/min to 25 rpm/min within 2 minutes. When the mouse fell from the drum to the sensing area below, an infrared sensor would receive the signal and record the time the mouse moved on the drum of the instrument. Before the formal test, three consecutive trainings were required for each mouse. During the test, three consecutive measurements are required, and the average falling time was selected (latency).
For orientation: The rotarod test checks motor coordination on a turning rod.

Assay [3] concerns Nissl-positive neurons in the substantia nigra pars compacta. Briefly: Nissl staining, neuron count in substantia nigra pars compacta, subacute MPTP mouse model. The following applies: for Number of Nissl-positive neurons in the substantia nigra pars compacta: Selegiline 0.5 mg/kg/d i.p. As to the method:
as §1, §2
(§4) On day 7 and day 14 after the last administration of MPTP respectively, half of the mice in each group were selected, anesthetized with 4% chloral hydrate, and perfused with saline +4% PFA to obtain brain tissue. After gradient dehydration in 20% (v/v) and 30% (v/v) sucrose solutions for 3 days respectively, the mouse brain tissue was embedded in OCT glue and frozen, and the Microtome Cryostat (Leica) was used to continuously slice the tissue (20 μm), and the brain slices of the relevant regions were collected, placed in freezing solution (glycerol: 0.01M PBS=1:1) and stored at −80° C. for use.
Nissl bodies are a type of basophilic substance in the cytoplasm that is widely found in various neurons, and thus the number of neurons in the relevant brain regions was calculated by Nissl staining. Staining was performed using the Nissl staining kit.
(§5) Immunohistochemical positive cells were counted using the Stereo Investigator (MBF bioscience) system and the number of Nissl body-positive cells and TH+ cells in the substantia nigra pars compacta were calculated. […]

The subject of assay [4] is TH-positive neurons in the substantia nigra pars compacta. Briefly: TH (tyrosine hydroxylase) staining, neuron count in substantia nigra pars compacta, subacute MPTP mouse model. The following applies: for Number of TH-positive neurons in the substantia nigra pars compacta: Selegiline 0.5 mg/kg/d i.p. On the procedure:
as §1, §2, §4
TH mainly marks dopaminergic neurons in the substantia nigra pars compacta. […] The midbrain slices were obtained, washed once with 0.01 M PBS for 10 min, and then incubated with 3% H2O2 for 15 min to remove endogenous peroxidase activity. […]
as §5

Assay [5] concerns subacute MPTP mouse model. Briefly: Open field test, total movement distance, subacute MPTP mouse model. The following applies: for Total movement distance in the open field test: Selegiline 0.5 mg/kg/d i.p. On the procedure: as §1, §2, §3
The open field test was used to evaluate the autonomous movement ability of mouse. The open field apparatus was made of opaque blue plastic and was 60 cm×60 cm×45 cm in size. During the test, each mouse was placed into the box from the central area, and the movement trajectory of each mouse within 5 minutes was recorded at the same time. The total movement distance was calculated using software (Clever Sys Inc., VA, USA). After each mouse was tested, the open field area was wiped with 75% ethanol to prevent the smell of the previous mouse from affecting the next mouse.

Where [6] appears, read: positive control Selegiline 0.5 mg/kg/d, day 1, 3, 7, and 14.
The mark [7] stands for this setting: positive control Selegiline 0.5 mg/kg/d, day 7 and 14.

Structures can show the parent of a compound that is named as a salt.

Consider `C#CCN(C)[C@H](C)Cc1ccccc1` [Selegiline, Selegiline hydrochloride], for which the T-TLA in assay [1] (Day 1 after last MPTP) came out at 9.23 ± 0.65 s; in assay [1] (Day 3 after last MPTP), 5.96 ± 0.49 s; in assay [1] (Day 7 after last MPTP), 7.61 ± 0.91 s; in assay [1] (Day 14 after last MPTP) it was 7.90 ± 1.17 s. Besides, the T-Turn in assay [1] (Day 1 after last MPTP) was 1.57 ± 0.10 s; in assay [1] (Day 3 after last MPTP), 1.35 ± 0.09 s; in assay [1] (Day 7 after last MPTP), 1.49 ± 0.14 s; in assay [1] (Day 14 after last MPTP), 1.49 ± 0.20 s. Moreover, the Latency time is 160.2 ± 4.8 s in assay [2] (Day 1 after last MPTP), 173.1 ± 2.2 s in assay [2] (Day 3 after last MPTP), 168.5 ± 3.5 s in assay [2] (Day 7 after last MPTP) and 166.7 ± 4.2 s in assay [2] (Day 14 after last MPTP). In addition, the “Effect on MPTP-induced shortening of rotarod latency (in words)” value in assay [2] (setting [6]) is reported as “significantly improved”. Also, the “Number of Nissl-positive neurons in the substantia nigra pars compacta” value in assay [3] (Day 7 after last MPTP) is 10688 ± 458; in assay [3] (Day 14 after last MPTP) it was 11024 ± 539. Moreover, the “Effect on MPTP-induced decrease in number of Nissl-stained positive neurons (in words)” value in assay [3] (setting [7]) is on record as “significantly improved”. Further, the results for the “Number of TH-positive neurons in the substantia nigra pars compacta” value in assay [4] (Day 7 after last MPTP) and in assay [4] (Day 14 after last MPTP) were 9578 ± 441 and 9670 ± 692, respectively. For the same compound, the “Effect on MPTP-induced decrease in number of TH-positive neurons (in words)” value in assay [4] (setting [7]) is given as “significantly improved”. Further, the “Total movement distance in the open field test” value in assay [5] (1 day after last MPTP) came out at 1269 ± 138 mm; in assay [5] (3 days after last MPTP) it was 1359 ± 68 mm; in assay [5] (7 days after last MPTP), 684 ± 68 mm; in assay [5] (14 days after last MPTP) it was 578 ± 51 mm. The “Effect on MPTP-induced reduction in total distance traveled (in words)” value in assay [5] (setting [6]) is “significantly improved”.
